ChEMBL document CHEMBL3885881, “DrugMatrix”

Species on record: Rattus norvegicus
Assay: DrugMatrix - Regimen: Daily Repeat
Format: toxicity, organism-based, Sprague-Dawley
Design: regimen Daily Repeat, gender Male, age 6-8 weeks
Conditions: in vivo, po, route oral GAVAGE, vehicle 100 % WATER; for ABSOLUTE BASOPHIL / ABSOLUTE EOSINOPHIL / ABSOLUTE LYMPHOCYTE / ABSOLUTE MONOCYTE / ABSOLUTE SEGMENTED NEUTROPHIL / BASOPHIL / EOSINOPHIL / ERYTHROCYTE COUNT / HEMATOCRIT / HEMOGLOBIN / LEUKOCYTE COUNT / LYMPHOCYTE / MEAN CORPUSCULAR HEMOGLOBIN / MEAN CORPUSCULAR HEMOGLOBIN CONCENTRATION / MEAN CORPUSCULAR VOLUME / MONOCYTE / NEUTROPHIL / NUCLEATED RED BLOOD CELLS / PLATELET COUNT: tissue Blood; for ALANINE AMINOTRANSFERASE / ALBUMIN / ALKALINE PHOSPHATASE / ASPARTATE AMINOTRANSFERASE / BLOOD UREA NITROGEN / CARBON DIOXIDE / CHLORIDE / CHOLESTEROL / CREATINE PHOSPHOKINASE / CREATININE / GLUCOSE / LACTATE DEHYDROGENASE / LIPASE / PHOSPHORUS / POTASSIUM / SODIUM / TOTAL BILIRUBIN / TOTAL PROTEIN / URIC ACID: tissue Plasma
[1] = 0 mg/kg, 72 h, dose level Control, time 3 day
[2] = 0 mg/kg, 120 h, dose level Control, time 5 day
[3] = 20 mg/kg, 72 h, dose level Low, time 3 day

## C=CCC1(C(C)CCC)C(=O)NC(=O)NC1=O (centres undefined) [SECOBARBITAL]
[1]
  ABSOLUTE BASOPHIL: 0 CELLS/uL
  ABSOLUTE EOSINOPHIL: 32.5 CELLS/uL
  ABSOLUTE LYMPHOCYTE: 9305.83 CELLS/uL
  ABSOLUTE MONOCYTE: 43.83 CELLS/uL
  ABSOLUTE SEGMENTED NEUTROPHIL: 817.83 CELLS/uL
  BASOPHIL: 0%
  EOSINOPHIL: 0.33%
  ERYTHROCYTE COUNT: 5.38 x10E6/uL
  HEMATOCRIT: 33.63%
  HEMOGLOBIN: 13.17 G/DL
  LEUKOCYTE COUNT: 10.2 x10E3/uL
  LYMPHOCYTE: 91.17%
  MEAN CORPUSCULAR HEMOGLOBIN: 24.5 pg
  MEAN CORPUSCULAR HEMOGLOBIN CONCENTRATION: 39.13 G/DL
  MEAN CORPUSCULAR VOLUME: 62.53 fL
  MONOCYTE: 0.5%
  NEUTROPHIL: 8%
  NUCLEATED RED BLOOD CELLS: 0.17 /100WBC
  PLATELET COUNT: 858 x10E3/uL
  ALANINE AMINOTRANSFERASE: 55.67 u/L
  ALBUMIN: 4.07 G/DL
  ALKALINE PHOSPHATASE: 337 u/L
  ASPARTATE AMINOTRANSFERASE: 84 u/L
  BLOOD UREA NITROGEN: 13.17 mg/dL
  CARBON DIOXIDE: 34.17 mmol/L
  CHLORIDE: 99.33 MEQ/L
  CHOLESTEROL: 78.83 mg/dL
  CREATINE PHOSPHOKINASE: 576.83 u/L
  CREATININE: 0.17 mg/dL
  GLUCOSE: 152.67 mg/dL
  LACTATE DEHYDROGENASE: 147.83 u/L
  LIPASE: 9.5 u/L
  PHOSPHORUS: 10.78 mg/dL
  POTASSIUM: 6.34 MEQ/L
  SODIUM: 144.12 MEQ/L
  TOTAL BILIRUBIN: 0.18 mg/dL
  TOTAL PROTEIN: 6.08 G/DL
  URIC ACID: 0.65 mg/dL
[2]
  ABSOLUTE BASOPHIL: 0 CELLS/uL
  ABSOLUTE EOSINOPHIL: 31.17 CELLS/uL
  ABSOLUTE LYMPHOCYTE: 7918.33 CELLS/uL
  ABSOLUTE MONOCYTE: 58.33 CELLS/uL
  ABSOLUTE SEGMENTED NEUTROPHIL: 725.5 CELLS/uL
  BASOPHIL: 0%
  EOSINOPHIL: 0.33%
  ERYTHROCYTE COUNT: 5.32 x10E6/uL
  HEMATOCRIT: 33.53%
  HEMOGLOBIN: 13.17 G/DL
  LEUKOCYTE COUNT: 8.73 x10E3/uL
  LYMPHOCYTE: 90.33%
  MEAN CORPUSCULAR HEMOGLOBIN: 24.82 pg
  MEAN CORPUSCULAR HEMOGLOBIN CONCENTRATION: 39.33 G/DL
  MEAN CORPUSCULAR VOLUME: 63.12 fL
  MONOCYTE: 0.67%
  NEUTROPHIL: 8.67%
  NUCLEATED RED BLOOD CELLS: 0 /100WBC
  PLATELET COUNT: 1144.83 x10E3/uL
  ALANINE AMINOTRANSFERASE: 60.5 u/L
  ALBUMIN: 3.97 G/DL
  ALKALINE PHOSPHATASE: 343.17 u/L
  ASPARTATE AMINOTRANSFERASE: 80.83 u/L
  BLOOD UREA NITROGEN: 15 mg/dL
  CARBON DIOXIDE: 31 mmol/L
  CHLORIDE: 99.75 MEQ/L
  CHOLESTEROL: 71.5 mg/dL
  CREATINE PHOSPHOKINASE: 237.17 u/L
  CREATININE: 0.17 mg/dL
  GLUCOSE: 137 mg/dL
  LACTATE DEHYDROGENASE: 146.17 u/L
  LIPASE: 11.5 u/L
  PHOSPHORUS: 10.13 mg/dL
  POTASSIUM: 6 MEQ/L
  SODIUM: 145 MEQ/L
  TOTAL BILIRUBIN: 0.13 mg/dL
  TOTAL PROTEIN: 5.82 G/DL
  URIC ACID: 0.62 mg/dL
[3]
  ABSOLUTE BASOPHIL: 0 CELLS/uL
  ABSOLUTE EOSINOPHIL: 51.33 CELLS/uL
  ABSOLUTE LYMPHOCYTE: 9158 CELLS/uL
  ABSOLUTE MONOCYTE: 51.33 CELLS/uL
  ABSOLUTE SEGMENTED NEUTROPHIL: 572.67 CELLS/uL
  BASOPHIL: 0%
  EOSINOPHIL: 0.67%
  ERYTHROCYTE COUNT: 5.3 x10E6/uL
  HEMATOCRIT: 33.23%
  HEMOGLOBIN: 12.87 G/DL
  LEUKOCYTE COUNT: 9.83 x10E3/uL
  LYMPHOCYTE: 93%
  MEAN CORPUSCULAR HEMOGLOBIN: 24.27 pg
  MEAN CORPUSCULAR HEMOGLOBIN CONCENTRATION: 38.7 G/DL
  MEAN CORPUSCULAR VOLUME: 62.83 fL
  MONOCYTE: 0.67%
  NEUTROPHIL: 5.67%
  NUCLEATED RED BLOOD CELLS: 0 /100WBC
  PLATELET COUNT: 930.33 x10E3/uL
  ALANINE AMINOTRANSFERASE: 63 u/L
  ALBUMIN: 4.2 G/DL
  ALKALINE PHOSPHATASE: 397.67 u/L
  ASPARTATE AMINOTRANSFERASE: 98.33 u/L
  BLOOD UREA NITROGEN: 13.33 mg/dL
  CARBON DIOXIDE: 35 mmol/L
  CHLORIDE: 99 MEQ/L
  CHOLESTEROL: 83.33 mg/dL
  CREATINE PHOSPHOKINASE: 496 u/L
  CREATININE: 0.16 mg/dL
  GLUCOSE: 140.67 mg/dL
  LACTATE DEHYDROGENASE: 160.33 u/L
  LIPASE: 9.67 u/L
  PHOSPHORUS: 11.03 mg/dL
  POTASSIUM: 6.51 MEQ/L
  SODIUM: 143.6 MEQ/L
  TOTAL BILIRUBIN: 0.2 mg/dL
  TOTAL PROTEIN: 6.1 G/DL
  URIC ACID: 0.83 mg/dL
